Assay results: US20210253562A1, “ACYLSUFONAMIDE COMPOUNDS USEFUL AS EP3 RECEPTOR ANTAGONISTS” (Janssen Pharmaceutica NV, priority 2018, published 2021)

Assays:
[1] = biological target: T1, CHO cells over-expressing the EP3 receptor (Homo sapiens, UniProt P43115); assay: CHO cell cAMP assay; EP3 cAMP antagonist dose response (sulprostone reference), HTRF; type: cell-based; settings: sulprostone 700 nM (EC80) and FSK 2 μM (EC70); read-out: CHO_cAMP IC50
T1 construct: expressed in transfected cells; host or cells: CHO cells
T1 sequence (P43115 1-390): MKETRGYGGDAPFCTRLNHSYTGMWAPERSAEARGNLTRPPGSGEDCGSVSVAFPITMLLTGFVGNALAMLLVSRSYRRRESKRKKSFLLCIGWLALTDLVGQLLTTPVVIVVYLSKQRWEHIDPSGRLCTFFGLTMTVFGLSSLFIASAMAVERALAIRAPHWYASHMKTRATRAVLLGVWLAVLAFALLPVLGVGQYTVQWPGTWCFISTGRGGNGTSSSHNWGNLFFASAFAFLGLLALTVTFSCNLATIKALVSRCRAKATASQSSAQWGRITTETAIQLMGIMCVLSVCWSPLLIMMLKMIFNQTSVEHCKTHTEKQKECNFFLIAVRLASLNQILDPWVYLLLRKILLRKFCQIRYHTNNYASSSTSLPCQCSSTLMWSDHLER
In short: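 EP3-overexpressing CHO cells pre-incubated with test compound, then stimulated 30 min at 37 °C with FSK (2 μM, EC70) plus sulprostone (700 nM, EC80); antagonism seen as restored cAMP. cAMP measured by HTRF 665/615 ratio, converted via on-plate standard curve. IC50 from Hill fit of 11-point dosing.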

male Sprague Dawley rats = assay: IV infused EP3 antagonists on circulating insulin and glucose in the sulprostone infusion IVGTT model; type: in vivo, rat; settings: SD rats, 2.1 mg/kg bolus followed by 3.09 mg/kg/hour infusion
Source text: Biological Example 3: IV Infused EP3 Antagonists on Circulating Insulin and Glucose in the Sulprostone Infusion IVGTT Model
Jugular vein and carotid artery cannulated male Sprague Dawley rats (˜250 g, available from Charles River) were housed one rat per suspended cage in a temperature-controlled room with 12-hour light/dark cycle. The rats were allowed ad libitum access to water and maintained on a regular diet. Animals were acclimated for minimum 5 days prior to the start of the experiment. Experimental procedures were carried out in accordance with institutional standards for animal care and were approved by the institute's animal care and use committee.
A blood sample for insulin and blood chemistry was collected at 20 min (t=−20) prior to the start of dosing with sulprostone and/or test compound (EP3 antagonist). […]
Blood samples from all animals were collected into Heparin treated tubes. Background was measured via a glucometer at the 0 and 2 min time points to ensure that the animal received the glucose bolus. Plasma insulin was measured via a Meso Scale Discovery metabolic assay (available from Meso Scale). Plasma glucose, free fatty acid (FFA), triglycerides, cholesterol and ketones were measured on an OLYMPUS AU400E chemistry analyzer. Observations on animal health were recorded throughout the procedure. […]

[2] = biological target: T2, EP3 membrane (EP3 receptor) (Homo sapiens, UniProt P43115); assay: [3H]-PGE2 binding; EP3 competition binding (SPA)
T2 construct: purchased Millipore HTS092M
T2 sequence (P43115 1-390): T1 sequence (P43115 1-390)
In short: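 Ki derived from one-site nonlinear regression of scintillation proximity counts after 2 h room-temperature equilibration. Serially diluted (1:3) compounds competed against [3H]-PGE2 (2 nM) for EP3 receptor membranes (2 μg/well) in pH 7.4 Tris buffer with 10 mM MgCl2, 1 mM EDTA, 0.1% DMSO.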

- IC50 [1]: 12 nM
- Ki [2]: 4 nM
SMILES: O=C(NC/C=C1\CCCc2cnn(Cc3ccc(Cl)cc3Cl)c21)NS(=O)(=O)c1ccc(Cl)cc1 [Compound #4, (E)-4-chloro-N-((2-(1-(2,4-dichlorobenzyl)-1,4,5,6-tetrahydro-7H-indazol-7-ylidene)ethyl)carbamoyl)benzenesulfonamide]
- suppression of glucose stimulated insulin secretion (GSIS) by sulprostone (male Sprague Dawley rats): reverse suppression of glucose stimulated insulin secretion (GSIS) by sulprostone
